Assay results: ChEMBL document CHEMBL5620376, “Design, synthesis and anti-NASH effect evaluation of novel GFT505 derivatives in vitro and in vivo” (Eur J Med Chem, 2023)
The source made the active and inactive calls. The rule behind the calls is not given here.

Key:
Mus musculus [1] = assay: Anti-NASH activity in MCD diet-induced nonalcoholic steatohepatitis C57BL/6 mouse assessed as decrease in serum ALT activity at 30 mg/kg,po administrated for 28 days; format: functional, organism-based; conditions: time 28.0 day
Mus musculus [2] = assay: Anti-NASH activity in MCD diet-induced nonalcoholic steatohepatitis C57BL/6 mouse assessed as increase in liver GSH level at 3 to 30 mg/kg,po administrated for 28 days; format: functional, organism-based; conditions: dose 3-30 mg/kg, time 28.0 day
[3] = Hepatotoxicity in MCD diet-induced C57BL/6 mouse assessed as reduction in liver index at 3 to 30 mg/kg,po administrated for 4 weeks by hematoxylin and eosin staining based microscopic analysis; format: toxicity, organism-based; conditions: in vivo, 672 h, dose 3-30 mg/kg
Mus musculus [4] = assay: Anti-NASH activity in MCD diet-induced nonalcoholic steatohepatitis C57BL/6 mouse assessed as reduction in triglyceride level in serum at 30 mg/kg,po administrated for 28 days; format: functional; conditions: time 28 day
Mus musculus [5] = assay: Anti-NASH activity in MCD diet-induced nonalcoholic steatohepatitis C57BL/6 mouse assessed as decrease in serum AST activity at 3 to 30 mg/kg,po administrated for 28 days; format: functional, organism-based; conditions: dose 3-30 mg/kg, time 28.0 day
Mus musculus [6] = assay: Anti-NASH activity in MCD diet-induced nonalcoholic steatohepatitis C57BL/6 mouse assessed as reduction in total cholesterol level in serum at 3 to 30 mg/kg,po administrated for 28 days; format: functional, organism-based; conditions: dose 3-30 mg/kg, time 28.0 day
HepG2 [7] = assay: Anti-NASH activity in free fatty acid-induced nonalcoholic steatohepatitis model in human HepG2 cells assessed as reduction in AST activity at 40 micromol/L incubated for 24 hrs; format: functional; conditions: dose 40 µmol/L
Mus musculus [8] = assay: Anti-NASH activity in MCD diet-induced nonalcoholic steatohepatitis C57BL/6 mouse assessed as reduction in triglyceride level in serum at 3 mg/kg,po administrated […]; format: functional
Mus musculus [9] = assay: Anti-NASH activity in MCD diet-induced nonalcoholic steatohepatitis C57BL/6 mouse assessed as decrease in serum TNF-alpha level at 3 to 30 mg/kg,po administrated for 28 days; format: functional, organism-based; conditions: dose 3-30 mg/kg, time 28.0 day
HepG2 [10] = assay: Anti-NASH activity in free fatty acid-induced nonalcoholic steatohepatitis model in human HepG2 cells assessed as reduction in intracellular triglyceride level measured per mg of protein at 40 micromol/L incubated for 24 hrs; format: functional, cell-based; conditions: dose 40.0 µmol/L
Mus musculus [11] = assay: Anti-NASH activity in MCD diet-induced nonalcoholic steatohepatitis C57BL/6 mouse assessed as reduction in triglyceride level in serum at 10 mg/kg,po administrated for 28 days; format: functional; conditions: time 28 day
Mus musculus [12] = assay: Anti-NASH activity in MCD diet-induced nonalcoholic steatohepatitis C57BL/6 mouse assessed as decrease in serum IL-6 level at 3 to 30 mg/kg,po administrated for 28 days; format: functional, organism-based; conditions: dose 3-30 mg/kg, time 28.0 day
HepG2 [13] = assay: Anti-NASH activity in free fatty acid-induced nonalcoholic steatohepatitis model in human HepG2 cells assessed as reduction in intracellular lipid accumulation at 40 micromol/L incubated for 24 hrs by Oil Red O/ Hematoxylin staining based analysis; format: functional, cell-based; conditions: dose 40.0 µmol/L
Mus musculus [14] = assay: Anti-NASH activity in MCD diet-induced nonalcoholic steatohepatitis C57BL/6 mouse assessed as decrease in serum IL-8 level at 3 to 30 mg/kg,po administrated for 28 days; format: functional, organism-based; conditions: dose 3-30 mg/kg, time 28.0 day
Mus musculus [15] = assay: Anti-NASH activity in MCD diet-induced nonalcoholic steatohepatitis C57BL/6 mouse assessed as reduction in triglyceride level in serum at 3 mg/kg,po administrated for 28 days; format: functional, organism-based; conditions: time 28.0 day
Mus musculus [16] = assay: Anti-NASH activity in MCD diet-induced nonalcoholic steatohepatitis C57BL/6 mouse assessed as decrease in serum LDL level at 3 to 30 mg/kg,po administrated for 28 days; format: functional, organism-based; conditions: dose 3-30 mg/kg, time 28.0 day
Mus musculus [17] = assay: Anti-NASH activity in MCD diet-induced nonalcoholic steatohepatitis C57BL/6 mouse assessed as increase in serum HDL level at 3 to 30 mg/kg,po administrated for 28 days; format: functional, organism-based; conditions: dose 3-30 mg/kg, time 28.0 day
Mus musculus [18] = assay: Anti-NASH activity in MCD diet-induced nonalcoholic steatohepatitis C57BL/6 mouse assessed as decrease in serum ALT activity at 10 mg/kg,po administrated for 28 days; format: functional, organism-based; conditions: time 28.0 day
HepG2 [19] = assay: Cytotoxicity against human HepG2 cells assessed as inhibition of cell proliferation at 20 to 80 micromol/L incubated for 24 hrs by MTT assay; format: functional, cell-based; conditions: dose 20-80 µmol/L
Mus musculus [20] = assay: Anti-NASH activity in MCD diet-induced nonalcoholic steatohepatitis C57BL/6 mouse assessed as reduction in triglyceride level in serum at 100 mg/kg,po administrated for 28 days; format: functional, organism-based; conditions: time 28.0 day
Mus musculus [21] = assay: Anti-NASH activity in MCD diet-induced nonalcoholic steatohepatitis C57BL/6 mouse assessed as decrease in serum LDL level at 100 mg/kg,po administrated for 28 days; format: functional, organism-based; conditions: time 28.0 day
HepG2 [22] = assay: Anti-NASH activity in free fatty acid-induced nonalcoholic steatohepatitis model in human HepG2 cells assessed as reduction in intracellular triglyceride level measured per mg of protein at 100 micromol/L incubated for 24 hrs; format: functional; conditions: dose 100 µmol/L
HepG2 [23] = assay: Anti-NASH activity in free fatty acid-induced nonalcoholic steatohepatitis model in human HepG2 cells assessed as reduction in AST activity at 100 micromol/L incubated for 24 hrs; format: functional; conditions: dose 100 µmol/L
[24] = Hepatotoxicity in MCD diet-induced C57BL/6 mouse assessed as reduction in liver index at 100 mg/kg,po administrated for 4 weeks by hematoxylin and eosin staining based microscopic analysis; format: toxicity, organism-based; conditions: in vivo, 672 h
Mus musculus [25] = assay: Anti-NASH activity in MCD diet-induced nonalcoholic steatohepatitis C57BL/6 mouse assessed as decrease in serum IL-6 level at 100 mg/kg,po administrated for 28 days; format: functional, organism-based; conditions: time 28.0 day
HepG2 [26] = assay: Anti-NASH activity in free fatty acid-induced nonalcoholic steatohepatitis model in human HepG2 cells assessed as reduction in intracellular lipid accumulation at 100 micromol/L incubated for 24 hrs by Oil Red O/ Hematoxylin staining based analysis; format: functional, cell-based; conditions: dose 100.0 µmol/L
Mus musculus [27] = assay: Anti-NASH activity in MCD diet-induced nonalcoholic steatohepatitis C57BL/6 mouse assessed as increase in serum HDL level at 100 mg/kg,po administrated for 28 days; format: functional, organism-based; conditions: time 28.0 day
Mus musculus [28] = assay: Anti-NASH activity in MCD diet-induced nonalcoholic steatohepatitis C57BL/6 mouse assessed as decrease in serum AST activity at 100 mg/kg,po administrated for 28 days; format: functional, organism-based; conditions: time 28.0 day
Mus musculus [29] = assay: Anti-NASH activity in MCD diet-induced nonalcoholic steatohepatitis C57BL/6 mouse assessed as decrease in serum TNF-alpha level at 100 mg/kg,po administrated for 28 days; format: functional, organism-based; conditions: time 28.0 day
Mus musculus [30] = assay: Anti-NASH activity in MCD diet-induced nonalcoholic steatohepatitis C57BL/6 mouse assessed as decrease in serum ALT activity at 100 mg/kg,po administrated for 28 days; format: functional, organism-based; conditions: time 28.0 day
Mus musculus [31] = assay: Anti-NASH activity in MCD diet-induced nonalcoholic steatohepatitis C57BL/6 mouse assessed as increase in liver GSH level at 100 mg/kg,po administrated for 28 days; format: functional, organism-based; conditions: time 28.0 day
Mus musculus [32] = assay: Anti-NASH activity in MCD diet-induced nonalcoholic steatohepatitis C57BL/6 mouse assessed as reduction in triglyceride level in serum at 3 to 30 mg/kg,po administrated for 28 days; format: functional, organism-based; conditions: dose 3-30 mg/kg, time 28.0 day
Mus musculus [33] = assay: Anti-NASH activity in MCD diet-induced nonalcoholic steatohepatitis C57BL/6 mouse assessed as increase in liver GSH level at 30 mg/kg,po administrated for 28 days; format: functional; conditions: time 28 day

For `CSc1ccc(C(=O)/C=C/c2cc(C)c(OC(C)(C)C(=O)O)c(C)c2)cc1` [ELAFIBRANOR], the Activity (Mus musculus [1]) was “Active”, the Activity (Mus musculus [2]) was “Active” and the Activity [3] was “Toxic”. The Activity (Mus musculus [4]) was 0.53 mmol/L, the Activity (Mus musculus [5]) was “Active” and the Activity (Mus musculus [6]) was “Active”. For the same compound, the Activity (HepG2 [7]) was 18.31 U/g, the Activity (Mus musculus [8]) was 0.64 mmol/L and the Activity (Mus musculus [9]) was “Active”. The Activity (HepG2 [10]) was “Active”, the Activity (Mus musculus [11]) was 0.69 mmol/L and the Activity (Mus musculus [12]) was “Active”. For the same compound, the Activity (HepG2 [13]) was “Active”, the Activity (Mus musculus [14]) was “Active” and the Activity (Mus musculus [15]) was “inactive”. For the same compound, the Activity (Mus musculus [16]) was “Active”, the Activity (Mus musculus [17]) was “Active” and the Activity (Mus musculus [18]) was “Active”. For the same compound, the Activity (HepG2 [19]) was “Active”.
For `CSc1ccc(C(=O)/C=C/c2cc(C)c(OC(C)(C)C(=O)OC(C)(C)C)c(C)c2)cc1`, the Activity (HepG2 [10]) was “Active”, the Activity (HepG2 [13]) was “Active” and the Activity (HepG2 [19]) was “inactive”.
For `Cc1cc(/C=C/C(=O)c2ccc(N(C)Cc3ccccc3)cc2)cc(C)c1OC(C)(C)C(=O)O`, the Activity (HepG2 [10]) was “Active”, the Activity (HepG2 [13]) was “Active” and the Activity (HepG2 [19]) was “inactive”.
With `Cc1cc(/C=C/C(=O)c2ccc(N(C)C)cc2)cc(C)c1OC(C)(C)C(=O)OC(C)(C)C` the Activity (HepG2 [10]) was “inactive”, the Activity (HepG2 [13]) was “inactive” and the Activity (HepG2 [19]) was “inactive”.
In the case of `Cc1cc(/C=C/C(=O)c2ccc(N(C)C)cc2)cc(C)c1OC(C)(C)C(=O)O`, the Activity (HepG2 [10]) is reported as “Active”, the Activity (HepG2 [13]) is reported as “Active” and the Activity (HepG2 [19]) is reported as “inactive”.
With `CNc1ccc(C(=O)/C=C/c2cc(C)c(OC(C)(C)C(=O)O)c(C)c2)cc1` the Activity (HepG2 [10]) was “inactive”, the Activity (HepG2 [13]) was “inactive” and the Activity (HepG2 [19]) was “inactive”.
In the case of `Cc1cc(/C=C/C(=O)c2ccc(N(C)Cc3ccccc3)cc2)cc(C)c1OC(C)(C)C(=O)OC(C)(C)C`, the Activity (HepG2 [10]) is reported as “Active”, the Activity (HepG2 [13]) is reported as “Active” and the Activity (HepG2 [19]) is reported as “inactive”.
With `COc1ccc(C(=O)/C=C/c2cc(C)c(OC(C)(C)C(=O)O)c(C)c2)cc1` the Activity (HepG2 [10]) was “Active”, the Activity (HepG2 [13]) was “Active” and the Activity (HepG2 [19]) was “Active”.
In the case of `COc1ccc(C(=O)/C=C/c2cc(C)c(OC(C)(C)C(=O)OC(C)(C)C)c(C)c2)cc1`, the Activity (HepG2 [10]) is reported as “Active”, the Activity (HepG2 [13]) is reported as “Active” and the Activity (HepG2 [19]) is reported as “inactive”.
In the case of `CC(C)OC(=O)C(C)(C)Oc1ccc(C(=O)c2ccc(Cl)cc2)cc1` [FENOFIBRATE], the Activity (Mus musculus [20]) is reported as “Active”, the Activity (Mus musculus [21]) is reported as “Active” and the Activity (HepG2 [22]) is reported as 0.15 mmol. For the same compound, the Activity (HepG2 [23]) was 19.78 U/g, the Activity [24] was “Toxic” and the Activity (Mus musculus [25]) was “Active”. The Activity (HepG2 [26]) was “Active”, the Activity (Mus musculus [27]) was “Active” and the Activity (Mus musculus [28]) was “Active”. The Activity (Mus musculus [29]) was “Active”, the Activity (Mus musculus [30]) was “Active” and the Activity (Mus musculus [31]) was “Active”.
In the case of `C[Se]c1ccc(C(=O)/C=C/c2cc(C)c(OC(C)(C)C(=O)O)c(C)c2)cc1`, the Activity (HepG2 [10]) is reported as “Active”, the Activity (HepG2 [13]) is reported as “Active” and the Activity (HepG2 [19]) is reported as “Active”.
In the case of `CNc1ccc(C(=O)/C=C/c2cc(C)c(OC(C)(C)C(=O)OC(C)(C)C)c(C)c2)cc1`, the Activity (Mus musculus [1]) is reported as “Active”, the Activity (Mus musculus [2]) is reported as “Active” and the Activity [3] is reported as “Non-Toxic”. The Activity (Mus musculus [5]) was “Active”, the Activity (Mus musculus [6]) was “Active” and the Activity (HepG2 [7]) was 18.65 U/g. For the same compound, the Activity (Mus musculus [9]) was “Active”, the Activity (HepG2 [10]) was “Active” and the Activity (Mus musculus [32]) was “Active”. For the same compound, the Activity (Mus musculus [12]) was “Active”, the Activity (HepG2 [13]) was “Active” and the Activity (Mus musculus [14]) was “Active”. For the same compound, the Activity (Mus musculus [16]) was “Active”, the Activity (Mus musculus [17]) was “Active” and the Activity (Mus musculus [18]) was “Active”. For the same compound, the Activity (Mus musculus [33]) was 47.8 µmol/g and the Activity (HepG2 [19]) was “inactive”.
In the case of `C[Se]c1ccc(C(=O)/C=C/c2cc(C)c(OC(C)(C)C(=O)OC(C)(C)C)c(C)c2)cc1`, the Activity (HepG2 [10]) is reported as “Active”, the Activity (HepG2 [13]) is reported as “Active” and the Activity (HepG2 [19]) is reported as “inactive”.
